Results as given in patent US11739064B2, “HDAC inhibitors and therapeutic methods using the same” (THE BOARD OF TRUSTEES OF THE UNIVERSITY OF ILLINOIS, priority 2015, dated 2023).

Experiments:
[1] = target: HDAC5 (Homo sapiens, UniProt Q9UQL6); experiment: HDAC isoform inhibition, HDAC5; type: biochemical
[2] = target: HDAC4 (Homo sapiens, UniProt P56524); experiment: HDAC isoform inhibition, HDAC4; type: biochemical
[3] = target: HDAC3/NcoR2 complex (Homo sapiens, UniProt O15379); experiment: In vitro HDAC inhibition assay, HDAC3; type: biochemical
[4] = tested on: BxPC3; experiment: In vitro growth inhibition (GI), MTS cell proliferation assay (Table 5), BxPC3; type: cell-based; conditions: Homo sapiens, BXPC-3, 72 hours post-treatment
[5] = target: Human HDAC1 (Homo sapiens, UniProt Q13547); experiment: In vitro HDAC inhibition assay, HDAC1; conditions: read-out: HDAC isoform IC50, HDAC1; NI = No inhibition at a concentration of 50 pM (footnote b)
[6] = target: HDAC9 (Homo sapiens, UniProt Q9UKV0); experiment: HDAC isoform inhibition, HDAC9; type: biochemical
[7] = target: T1, HDAC7 (Homo sapiens, UniProt Q8WUI4); experiment: HDAC isoform inhibition, HDAC7; type: biochemical
T1 sequence (Q8WUI4 1-952): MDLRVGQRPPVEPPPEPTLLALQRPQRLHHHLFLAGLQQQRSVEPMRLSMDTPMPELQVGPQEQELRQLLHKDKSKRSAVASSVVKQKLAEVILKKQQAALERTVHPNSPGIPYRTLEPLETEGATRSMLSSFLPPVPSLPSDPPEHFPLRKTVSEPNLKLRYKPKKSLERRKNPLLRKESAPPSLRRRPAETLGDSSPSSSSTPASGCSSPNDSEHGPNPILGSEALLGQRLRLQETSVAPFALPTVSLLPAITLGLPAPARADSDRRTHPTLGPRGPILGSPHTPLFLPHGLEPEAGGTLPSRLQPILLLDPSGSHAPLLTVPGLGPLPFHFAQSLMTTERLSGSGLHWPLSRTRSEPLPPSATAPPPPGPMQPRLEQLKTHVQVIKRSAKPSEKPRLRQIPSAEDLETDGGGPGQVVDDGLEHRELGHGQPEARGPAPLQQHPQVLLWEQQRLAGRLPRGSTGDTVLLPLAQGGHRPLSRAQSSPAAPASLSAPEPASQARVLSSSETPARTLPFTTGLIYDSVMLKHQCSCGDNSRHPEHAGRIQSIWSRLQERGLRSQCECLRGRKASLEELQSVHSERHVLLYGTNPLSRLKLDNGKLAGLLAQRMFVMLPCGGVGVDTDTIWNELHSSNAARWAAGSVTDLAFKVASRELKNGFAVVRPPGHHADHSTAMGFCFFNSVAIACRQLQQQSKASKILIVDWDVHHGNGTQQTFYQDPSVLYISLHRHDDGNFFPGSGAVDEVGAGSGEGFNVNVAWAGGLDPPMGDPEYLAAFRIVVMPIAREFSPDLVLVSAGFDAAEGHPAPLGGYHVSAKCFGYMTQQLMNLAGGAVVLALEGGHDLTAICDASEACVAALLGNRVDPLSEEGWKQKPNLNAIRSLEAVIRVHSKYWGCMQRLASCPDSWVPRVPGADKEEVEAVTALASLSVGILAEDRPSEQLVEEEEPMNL

[8] = target: T2, Human HDAC6 (Homo sapiens, UniProt Q9UBN7); experiment: In vitro HDAC inhibition assay, HDAC6; type: biochemical; conditions: read-out: HDAC isoform IC50, HDAC6
T2 construct: Full length with N-terminal GST tag, MW=159 kDa; GST (N); host or cells: baculovirus expression system, Sf9 cells
T2 sequence (Q9UBN7 1-1215): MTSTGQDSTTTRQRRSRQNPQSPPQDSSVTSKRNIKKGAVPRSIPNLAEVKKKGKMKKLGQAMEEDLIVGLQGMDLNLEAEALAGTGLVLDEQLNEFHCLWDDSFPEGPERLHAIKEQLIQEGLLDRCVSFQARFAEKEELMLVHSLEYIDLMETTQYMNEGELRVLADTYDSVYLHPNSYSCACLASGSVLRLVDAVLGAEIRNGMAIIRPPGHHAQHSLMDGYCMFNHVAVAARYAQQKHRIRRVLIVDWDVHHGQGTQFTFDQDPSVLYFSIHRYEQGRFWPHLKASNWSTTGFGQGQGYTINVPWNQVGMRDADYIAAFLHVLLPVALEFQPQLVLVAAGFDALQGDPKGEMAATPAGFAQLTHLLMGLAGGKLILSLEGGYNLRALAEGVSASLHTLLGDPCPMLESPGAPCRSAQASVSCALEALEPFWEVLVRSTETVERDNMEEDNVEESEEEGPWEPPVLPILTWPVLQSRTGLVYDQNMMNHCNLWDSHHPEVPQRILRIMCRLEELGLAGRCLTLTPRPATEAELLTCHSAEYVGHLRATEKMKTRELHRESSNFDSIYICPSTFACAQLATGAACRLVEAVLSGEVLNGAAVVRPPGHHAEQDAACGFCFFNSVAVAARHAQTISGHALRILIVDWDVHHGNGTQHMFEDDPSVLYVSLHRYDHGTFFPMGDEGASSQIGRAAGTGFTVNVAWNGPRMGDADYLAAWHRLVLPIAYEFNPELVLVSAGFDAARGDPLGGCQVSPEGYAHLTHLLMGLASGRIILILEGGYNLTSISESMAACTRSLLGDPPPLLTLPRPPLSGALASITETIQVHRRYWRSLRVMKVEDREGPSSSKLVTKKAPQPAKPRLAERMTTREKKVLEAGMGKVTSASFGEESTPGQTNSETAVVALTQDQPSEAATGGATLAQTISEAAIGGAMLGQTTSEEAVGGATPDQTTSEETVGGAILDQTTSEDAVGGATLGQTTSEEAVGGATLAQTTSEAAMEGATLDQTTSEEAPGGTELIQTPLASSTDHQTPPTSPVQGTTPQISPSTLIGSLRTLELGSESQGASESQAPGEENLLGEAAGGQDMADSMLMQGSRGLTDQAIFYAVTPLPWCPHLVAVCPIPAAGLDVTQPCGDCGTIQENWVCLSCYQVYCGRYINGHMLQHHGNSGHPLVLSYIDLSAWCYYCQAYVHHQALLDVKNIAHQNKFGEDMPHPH

Chain of HDAC4 (P56524 whole entry, canonical isoform): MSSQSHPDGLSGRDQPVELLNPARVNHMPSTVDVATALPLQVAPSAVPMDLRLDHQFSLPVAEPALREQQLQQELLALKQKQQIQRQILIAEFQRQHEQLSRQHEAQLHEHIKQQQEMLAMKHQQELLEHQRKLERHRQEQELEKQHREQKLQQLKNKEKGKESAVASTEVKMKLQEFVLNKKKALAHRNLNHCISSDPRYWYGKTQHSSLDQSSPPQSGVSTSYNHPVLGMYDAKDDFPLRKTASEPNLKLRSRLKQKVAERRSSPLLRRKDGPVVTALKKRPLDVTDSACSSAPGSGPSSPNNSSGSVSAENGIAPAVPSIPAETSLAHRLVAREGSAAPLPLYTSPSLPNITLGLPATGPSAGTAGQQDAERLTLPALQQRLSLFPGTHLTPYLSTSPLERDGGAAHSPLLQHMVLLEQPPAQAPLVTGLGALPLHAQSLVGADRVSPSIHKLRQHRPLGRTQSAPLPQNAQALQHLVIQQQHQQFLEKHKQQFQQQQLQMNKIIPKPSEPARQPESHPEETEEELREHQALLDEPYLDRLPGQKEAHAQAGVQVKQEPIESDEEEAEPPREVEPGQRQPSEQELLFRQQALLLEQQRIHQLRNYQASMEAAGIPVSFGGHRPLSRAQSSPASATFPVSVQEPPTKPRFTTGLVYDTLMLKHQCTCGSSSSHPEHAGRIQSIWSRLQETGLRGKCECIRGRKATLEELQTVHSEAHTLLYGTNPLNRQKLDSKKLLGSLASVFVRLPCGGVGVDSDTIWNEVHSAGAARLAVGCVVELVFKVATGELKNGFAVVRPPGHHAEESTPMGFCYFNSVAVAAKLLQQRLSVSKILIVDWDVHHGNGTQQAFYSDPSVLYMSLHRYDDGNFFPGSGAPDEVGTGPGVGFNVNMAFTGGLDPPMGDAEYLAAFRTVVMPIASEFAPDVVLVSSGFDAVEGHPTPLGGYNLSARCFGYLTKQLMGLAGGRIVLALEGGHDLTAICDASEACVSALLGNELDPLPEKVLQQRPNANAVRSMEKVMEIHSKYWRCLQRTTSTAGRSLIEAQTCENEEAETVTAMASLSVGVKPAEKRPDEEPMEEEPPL
Chain of HDAC5 (Q9UQL6 whole entry, canonical isoform): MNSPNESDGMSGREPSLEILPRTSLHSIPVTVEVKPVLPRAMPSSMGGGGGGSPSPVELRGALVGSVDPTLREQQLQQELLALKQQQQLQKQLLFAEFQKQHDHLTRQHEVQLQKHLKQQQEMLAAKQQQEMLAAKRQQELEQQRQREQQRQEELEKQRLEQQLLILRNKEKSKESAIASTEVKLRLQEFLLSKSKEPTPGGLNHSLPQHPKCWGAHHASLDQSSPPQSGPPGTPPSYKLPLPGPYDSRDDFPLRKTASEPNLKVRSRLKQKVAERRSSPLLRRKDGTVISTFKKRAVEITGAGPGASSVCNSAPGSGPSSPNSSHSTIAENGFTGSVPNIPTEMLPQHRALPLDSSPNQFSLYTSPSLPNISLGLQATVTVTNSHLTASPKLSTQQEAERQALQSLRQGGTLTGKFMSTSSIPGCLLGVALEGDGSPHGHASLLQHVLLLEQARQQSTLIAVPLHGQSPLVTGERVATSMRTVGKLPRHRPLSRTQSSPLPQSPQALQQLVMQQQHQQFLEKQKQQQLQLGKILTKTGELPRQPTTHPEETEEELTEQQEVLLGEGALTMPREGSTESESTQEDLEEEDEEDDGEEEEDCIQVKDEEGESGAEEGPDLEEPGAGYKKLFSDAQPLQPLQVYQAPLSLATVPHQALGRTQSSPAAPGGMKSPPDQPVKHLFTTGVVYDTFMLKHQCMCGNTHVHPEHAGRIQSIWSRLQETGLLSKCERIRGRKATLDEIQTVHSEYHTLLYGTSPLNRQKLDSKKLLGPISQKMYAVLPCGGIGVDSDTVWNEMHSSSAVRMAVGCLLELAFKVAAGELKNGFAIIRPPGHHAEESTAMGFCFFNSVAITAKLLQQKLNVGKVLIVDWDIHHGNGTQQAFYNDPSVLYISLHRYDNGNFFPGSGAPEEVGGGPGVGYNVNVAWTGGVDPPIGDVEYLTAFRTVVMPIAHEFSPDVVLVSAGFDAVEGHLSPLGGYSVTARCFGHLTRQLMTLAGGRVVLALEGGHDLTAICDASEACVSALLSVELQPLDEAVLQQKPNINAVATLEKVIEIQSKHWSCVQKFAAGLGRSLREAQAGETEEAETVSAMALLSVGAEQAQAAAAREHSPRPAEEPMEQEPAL
Chain of HDAC3/NcoR2 complex (O15379 whole entry): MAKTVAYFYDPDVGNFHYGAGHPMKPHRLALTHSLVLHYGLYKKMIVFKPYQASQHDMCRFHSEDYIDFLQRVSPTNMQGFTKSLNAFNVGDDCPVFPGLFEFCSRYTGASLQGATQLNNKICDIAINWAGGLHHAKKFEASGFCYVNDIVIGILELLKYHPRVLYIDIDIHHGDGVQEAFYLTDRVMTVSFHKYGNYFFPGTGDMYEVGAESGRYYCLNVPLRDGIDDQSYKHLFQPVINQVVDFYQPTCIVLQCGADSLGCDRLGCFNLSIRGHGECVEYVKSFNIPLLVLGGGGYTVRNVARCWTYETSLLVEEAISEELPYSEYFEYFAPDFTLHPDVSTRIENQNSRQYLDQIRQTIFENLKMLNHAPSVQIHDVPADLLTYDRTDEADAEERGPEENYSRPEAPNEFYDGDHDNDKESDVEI
Chain of HDAC3/NcoR2 complex (Q9Y618 395-489 partner limits assumed): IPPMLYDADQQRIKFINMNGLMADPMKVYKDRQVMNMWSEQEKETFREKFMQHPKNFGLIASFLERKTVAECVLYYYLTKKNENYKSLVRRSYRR
Chain of HDAC9 (Q9UKV0 whole entry, canonical isoform): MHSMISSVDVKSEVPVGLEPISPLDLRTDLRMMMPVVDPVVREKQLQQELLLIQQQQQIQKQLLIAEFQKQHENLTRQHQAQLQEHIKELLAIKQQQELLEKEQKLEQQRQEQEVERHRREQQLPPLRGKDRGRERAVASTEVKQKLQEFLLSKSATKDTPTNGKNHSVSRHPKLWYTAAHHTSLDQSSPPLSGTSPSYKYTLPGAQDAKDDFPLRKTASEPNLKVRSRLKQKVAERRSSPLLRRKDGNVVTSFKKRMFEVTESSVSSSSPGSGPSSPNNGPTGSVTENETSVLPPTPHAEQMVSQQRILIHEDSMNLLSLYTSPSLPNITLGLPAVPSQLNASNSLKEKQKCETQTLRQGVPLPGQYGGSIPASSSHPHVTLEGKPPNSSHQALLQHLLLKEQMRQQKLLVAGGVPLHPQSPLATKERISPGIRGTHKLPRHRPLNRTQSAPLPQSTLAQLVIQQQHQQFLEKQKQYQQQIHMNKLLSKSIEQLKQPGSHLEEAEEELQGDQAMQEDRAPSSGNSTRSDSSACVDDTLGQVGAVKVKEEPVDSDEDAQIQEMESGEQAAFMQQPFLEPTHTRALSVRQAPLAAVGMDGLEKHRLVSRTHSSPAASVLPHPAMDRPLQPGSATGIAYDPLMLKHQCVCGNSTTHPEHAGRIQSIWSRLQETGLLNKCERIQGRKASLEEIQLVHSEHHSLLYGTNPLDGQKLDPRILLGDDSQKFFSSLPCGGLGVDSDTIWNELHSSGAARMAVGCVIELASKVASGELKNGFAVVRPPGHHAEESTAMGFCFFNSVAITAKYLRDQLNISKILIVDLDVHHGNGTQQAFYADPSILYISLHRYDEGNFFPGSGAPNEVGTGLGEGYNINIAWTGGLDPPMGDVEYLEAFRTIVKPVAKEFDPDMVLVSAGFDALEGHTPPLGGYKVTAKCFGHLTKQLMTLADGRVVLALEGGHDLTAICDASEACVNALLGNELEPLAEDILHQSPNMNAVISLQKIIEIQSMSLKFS
Chain of Human HDAC1 (Q13547 whole entry, canonical isoform): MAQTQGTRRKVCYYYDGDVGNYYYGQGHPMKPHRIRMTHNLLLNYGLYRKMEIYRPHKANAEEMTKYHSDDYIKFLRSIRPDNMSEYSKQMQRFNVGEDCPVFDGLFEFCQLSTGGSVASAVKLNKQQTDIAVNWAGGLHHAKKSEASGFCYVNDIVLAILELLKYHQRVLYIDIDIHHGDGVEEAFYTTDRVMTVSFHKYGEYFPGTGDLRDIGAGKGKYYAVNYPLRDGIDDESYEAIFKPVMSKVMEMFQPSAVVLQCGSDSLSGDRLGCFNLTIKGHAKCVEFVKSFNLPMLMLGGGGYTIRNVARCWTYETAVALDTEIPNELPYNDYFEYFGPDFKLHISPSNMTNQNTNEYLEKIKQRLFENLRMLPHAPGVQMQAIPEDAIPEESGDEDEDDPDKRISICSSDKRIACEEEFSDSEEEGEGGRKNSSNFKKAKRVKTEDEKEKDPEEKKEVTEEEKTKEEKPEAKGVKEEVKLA

`CC(C)(C)OC(=O)Nc1ccc(-c2cc(C(=O)NCCc3cc(C(=O)NO)no3)no2)cc1` [Compound 6, (4-{3-[2-(3-Hydroxycarbamoyl-isoxazol-5-yl)-ethylcarbamoyl]-isoxazol-5-yl}-phenyl)-carbamic acid tert-butyl ester] was tested, and the IC50 [1] was 34.5 µM, the “Selectivity for HDAC6 (fold) over HDAC5” value [1] was 5750 fold and the IC50 [2] was 130 µM. For the same molecule, the “Selectivity for HDAC6 (fold) over HDAC4” value [2] was 21600 fold, the “Selectivity for HDAC6 (fold) over HDAC3” value [3] was 3800 fold and the IC50 ([3]; NI = No inhibition at a concentration of 50 pM (footnote b), read-out: HDAC isoform IC50, HDAC3) was 22.8 µM. It also gave a GI50 [4] of 29 µM, an IC50 [5] of 16.9 µM and an IC50 [6] of 12.8 µM. For the same molecule, the “Selectivity for HDAC6 (fold) over HDAC9” value [6] was 2130 fold, the IC50 [7] was 105 µM and the “Selectivity for HDAC6 (fold) over HDAC7” value [7] was 17500 fold. For the same molecule, the IC50 [8] was 0.006 µM.
